Earlier results as cited in US20080070991A1 (priority 2006, published 2008).

Tested on: stilbene synthase
Conditions: Barbera cell suspensions treated with 10 μm methyljasmonate

In the case of `CC/C=C\CC1C(=O)CCC1CC(=O)OC` (stereo not shown) [methyljasmonate, Methyljasmonate], the “stilbene synthase expression (gel analysis)” value is given as “up-regulation of the stilbene synthase”.
